Test results taken from ChEMBL document CHEMBL3621202, “Suppression of Hepatocellular Carcinoma by Inhibition of Overexpressed Ornithine Aminotransferase” (ACS Med Chem Lett, 2015).
Active and inactive are the calls of the source. No cut-off for these calls is given here.

Columns and labels:
[1] = target: T1, Ornithine aminotransferase, mitochondrial (Homo sapiens, UniProt P04181); assay: Inhibition of human recombinant OAT using 1 mM alpha-ketoglutarate as substrate
T1 sequence (P04181 whole entry): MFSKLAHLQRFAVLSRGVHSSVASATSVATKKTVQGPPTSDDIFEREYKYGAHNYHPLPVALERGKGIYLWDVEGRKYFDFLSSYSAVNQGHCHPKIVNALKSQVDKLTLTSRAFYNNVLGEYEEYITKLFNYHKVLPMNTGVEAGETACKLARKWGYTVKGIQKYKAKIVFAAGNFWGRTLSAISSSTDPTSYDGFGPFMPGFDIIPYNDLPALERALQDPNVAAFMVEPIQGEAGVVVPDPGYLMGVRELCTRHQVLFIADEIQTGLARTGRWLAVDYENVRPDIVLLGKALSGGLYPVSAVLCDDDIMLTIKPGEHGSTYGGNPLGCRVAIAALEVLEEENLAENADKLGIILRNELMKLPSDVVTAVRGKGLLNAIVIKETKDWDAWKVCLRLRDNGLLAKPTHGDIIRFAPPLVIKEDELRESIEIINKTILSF

[2] = Antitumor activity against human Hep3B cells xenografted in Balb/C mouse assessed as tumor size at 1 mg/kg, po administered 3 weeks after xenograft measured 28 days after treatment (reference value: 24.2); format: functional, Hep 3B2
Homo sapiens = species on record: Homo sapiens; assay: Inhibition of alanine aminotransferase (unknown origin) at 4 mM using 5.55 mM L-alanine as substrate
HepG2 [3] = assay: Decrease in AFP secretion in human HepG2 cells at 50 ug/ml by ELISA; format: functional, cell-based
Mus musculus [4] = assay: Reduction in AFP secretion in Hep3B cells xenografted Balb/C mouse serum at 0.1 mg/kg, po administered 3 weeks after xenograft measured 14 days after treatment by ELISA (reference value: 29155 pg/ml); format: functional, Hep 3B2
Hep 3B2 [5] = assay: Decrease in AFP secretion in human Hep3B cells at 50 ug/ml by ELISA; format: functional, cell-based
Mus musculus [6] = assay: Reduction in AFP secretion in Hep3B cells xenografted Balb/C mouse serum at 1 mg/kg, po administered 3 weeks after xenograft measured 14 days after treatment by ELISA (reference value: 29155 pg/ml); format: functional, Hep 3B2
Mus musculus [7] = assay: Reduction in AFP secretion in Hep3B cells xenografted Balb/C mouse serum at 0.1 mg/kg, po administered 3 weeks after xenograft measured 21 days after treatment by ELISA; format: functional, organism-based; conditions: Hep 3B2
[8] = target: Aspartate aminotransferase, cytoplasmic (Homo sapiens) (UniProt P17174); assay: Inhibition of aspartate aminotransferase (unknown origin) at 4 mM using 5.55 mM L-aspartate as substrate
Chain of Aspartate aminotransferase, cytoplasmic (Homo sapiens) (P17174 whole entry): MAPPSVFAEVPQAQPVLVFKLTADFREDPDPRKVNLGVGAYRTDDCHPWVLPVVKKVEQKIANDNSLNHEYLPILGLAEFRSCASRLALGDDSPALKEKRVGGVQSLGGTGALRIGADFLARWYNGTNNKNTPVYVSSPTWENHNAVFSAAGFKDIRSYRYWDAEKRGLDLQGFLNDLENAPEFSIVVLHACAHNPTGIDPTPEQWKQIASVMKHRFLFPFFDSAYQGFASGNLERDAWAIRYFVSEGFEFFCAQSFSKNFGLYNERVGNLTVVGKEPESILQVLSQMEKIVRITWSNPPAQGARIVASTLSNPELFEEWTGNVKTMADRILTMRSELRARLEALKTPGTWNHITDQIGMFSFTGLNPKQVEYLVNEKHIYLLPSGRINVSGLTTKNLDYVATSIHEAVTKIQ

Mus musculus [9] = assay: Reduction in AFP secretion in Hep3B cells xenografted Balb/C mouse serum at 1 mg/kg, po administered 3 weeks after xenograft measured 21 days after treatment by ELISA; format: functional, organism-based; conditions: Hep 3B2
[10] = Antitumor activity against human Hep3B cells xenografted in Balb/C mouse assessed as tumor size at 0.1 mg/kg, po administered 3 weeks after xenograft measured 28 days after treatment (reference value: 24.2); format: functional, Hep 3B2
HepG2 [11] = assay: Effect AFP secretion in human HepG2 cells by ELISA; format: functional, cell-based
Hepa1-6 = assay: Effect AFP secretion in […] cells by ELISA; format: functional, cell-based
Mus musculus [12] = assay: Reduction in AFP secretion in Hep3B cells xenografted Balb/C mouse serum at 500 ug/kg, ip administered as single dose by ELISA; format: functional, organism-based; conditions: Hep 3B2
[13] = Antiproliferative activity against […] cells after 48 hrs by [3H]-thymidine incorporation assay; format: functional
[14] = Antiproliferative activity against human Hep3B cells after 48 hrs by [3H]-thymidine incorporation assay; format: functional, Hep 3B2
Hep 3B2 [15] = assay: Effect AFP secretion in human Hep3B cells by ELISA; format: functional, cell-based

NC1C=CC=C(C(=O)O)C1 (stereo not drawn) [GABACULINE]
Ki [1]: 2.1 µM

N[C@H]1C[C@@H](C(=O)O)CC1=C(C(F)(F)F)C(F)(F)F
fold change (FC) [2]: 3.1
inhibition (Homo sapiens): inactive
inhibition (HepG2 [3]): Active
Ki [1]: 4.2 µM
Activity (Mus musculus [4]): 24857 pg/mL
inhibition (Hep 3B2 [5]): Active
Activity (Mus musculus [6]): 24857 pg/mL
inhibition (Mus musculus [7]): Active
inhibition [8]: inactive
inhibition (Mus musculus [9]): Active
fold change (FC) [10]: 4.5

N[C@H]1C=C(C(=O)O)CCC1 [GABACULINE]
Activity (HepG2 [11]): inactive
Activity (Hepa1-6): inactive
inhibition (Mus musculus [12]): Active
inhibition (INH) [13]: 43%
inhibition (INH) [14]: 43%
Activity (Hep 3B2 [15]): inactive
